Legend:
[1] = system: normal human keratinocytes; assay: XTT viability test and microscopic observation of the cells; assay type: cell-based; details: test concentration 0.5 μg per ml; plate treated in parallel
Method: The cells are inoculated in a 96-well culture plate at a rate of 25,000 NHK per well in SFMc. After incubation for 24 h, which is necessary for good adhesion of the cells, the medium is replaced with SFMc diluted to 2% to limit the proliferation of the keratinocytes during the test. The test concentration of ellagic acid is 0.5 microgram per ml of test medium, which is obtained immediately beforehand from a stock solution containing 0.5 mg of ellagic acid per ml of DMSO. The final concentration of DMSO in the test medium is therefore 0.1% V/Vfinal. This concentration is not toxic to the cells. The control consists of SFMc test medium diluted to 2%, to which 0.1% V/V of DMSO has been added. Six cultures are prepared for the test product and six for the control experiment.
A plate treated in parallel is used for the XTT viability test with the XTT kit from Boehringer, reference 146 50 15, in order to measure the mitochondrial dehydrogenase activity of the viable cells.

[2] = system: collagen VII in a culture of normal human keratinocytes; assay: ELISA of collagen VII in supernatants of normal human keratinocyte cultures; assay type: cell-based; details: ellagic acid 0.5 μg/ml; for RODC for 72 h of incubation: reduced optical density corrected to 100 μg cellular proteins; for A for 72 h of incubation (activity on the proportion of collagen VII): relative to control culture

O=c1oc2c(O)c(O)cc3c(=O)oc4c(O)c(O)cc1c4c23 [Ellagic acid, 2,3,7,8-tetrahydroxy(1)-benzopyrano-pyrano (5,4,3-cde)(1)benzopyran-5,10-dione]
viability (mitochondrial dehydrogenase activity of viable cells, XTT; microscopic observation) [1]: No significant drop in viability | RODC for 72 h of incubation ([2]; NHK 1106P1 (face-lift)): 1.563 ± 0.240 | A for 72 h of incubation (activity on the proportion of collagen VII) ([2]; NHK 1106P1 (face-lift)): +64% | RODC for 72 h of incubation ([2]; NHK 1124P2 (face-lift)): 1.098 ± 0.100 | A for 72 h of incubation (activity on the proportion of collagen VII) ([2]; NHK 1124P2 (face-lift)): +42% | proportion of collagen VII present in the culture media ([2]; both strains): large and significant increase
